From ChEMBL document CHEMBL1201862, “PubChem BioAssay data set” (2004)
The source made the active and inactive calls.

What was measured:
[1] = biological target: Heat shock protein HSP 90-alpha (Homo sapiens, UniProt P07900); type: functional, organism-based
[2] = biological target: T1, RNA-binding protein pos-1 (Caenorhabditis elegans, UniProt G5EF15); assay: disruptors of C. elegans POS-1 RNA interaction – biochemical, fluorescence polarization, dose response (AID 1964);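 also: purified POS-1 fused to maltose binding protein made in E. coli; potency of compounds blocking POS-1 binding to fluorescent RNA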
T1 sequence (G5EF15 whole entry): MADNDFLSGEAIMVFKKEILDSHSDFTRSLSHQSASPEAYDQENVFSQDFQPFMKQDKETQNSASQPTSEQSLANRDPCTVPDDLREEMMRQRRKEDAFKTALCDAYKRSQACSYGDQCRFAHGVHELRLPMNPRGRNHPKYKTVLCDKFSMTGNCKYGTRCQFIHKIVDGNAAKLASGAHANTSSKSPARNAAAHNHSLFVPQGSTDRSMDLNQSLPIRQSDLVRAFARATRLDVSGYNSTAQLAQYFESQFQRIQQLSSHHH

[3] = biological target: T2, Zinc finger protein mex-5 (Caenorhabditis elegans, UniProt Q9XUB2); assay: potency of MEX-5 RNA-binding blockers – biochemical, C. elegans, fluorescence polarization, dose response (AID 1960)
T2 sequence (Q9XUB2 whole entry): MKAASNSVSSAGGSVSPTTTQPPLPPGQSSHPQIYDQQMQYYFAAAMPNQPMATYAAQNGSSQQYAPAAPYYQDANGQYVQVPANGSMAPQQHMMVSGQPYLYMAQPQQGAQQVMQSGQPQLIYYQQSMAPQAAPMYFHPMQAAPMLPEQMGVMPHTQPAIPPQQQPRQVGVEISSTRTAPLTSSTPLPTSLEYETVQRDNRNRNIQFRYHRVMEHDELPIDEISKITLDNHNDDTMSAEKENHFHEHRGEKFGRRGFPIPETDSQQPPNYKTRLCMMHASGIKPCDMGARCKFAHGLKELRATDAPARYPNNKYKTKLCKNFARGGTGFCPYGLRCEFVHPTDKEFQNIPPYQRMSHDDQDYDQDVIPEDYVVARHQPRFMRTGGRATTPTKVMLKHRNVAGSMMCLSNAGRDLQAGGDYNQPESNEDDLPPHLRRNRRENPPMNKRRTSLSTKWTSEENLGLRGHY

[4] = luciferase reporter signal suppression in cells – H4 neuroglioma cells, luminescence, dose response (AID 1990); type: functional, cell-based
[5] = biological target: T3, Mannose-6-phosphate isomerase (Homo sapiens, UniProt P34949); assay: MPI enzyme activity inhibition – biochemical, fluorescence intensity, coupled assay, primary screen (AID 1209)
T3 sequence (P34949 whole entry): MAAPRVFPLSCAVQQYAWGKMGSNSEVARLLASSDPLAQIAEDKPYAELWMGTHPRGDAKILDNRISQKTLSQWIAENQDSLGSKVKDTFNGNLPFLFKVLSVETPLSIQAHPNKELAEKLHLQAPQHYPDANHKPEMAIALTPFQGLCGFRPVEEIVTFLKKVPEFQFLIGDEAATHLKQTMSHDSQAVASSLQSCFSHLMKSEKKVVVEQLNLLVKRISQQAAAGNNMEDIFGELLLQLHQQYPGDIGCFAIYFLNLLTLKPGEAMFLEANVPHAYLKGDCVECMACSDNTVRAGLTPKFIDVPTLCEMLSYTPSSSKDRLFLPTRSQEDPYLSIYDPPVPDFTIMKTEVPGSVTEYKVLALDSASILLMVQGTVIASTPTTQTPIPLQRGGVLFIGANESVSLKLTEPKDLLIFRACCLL

Hexokinase HKDC1 = biological target: T4, Hexokinase HKDC1 (Homo sapiens, UniProt Q2TB90); assay: inhibition of HKDC1 glucose phosphorylation – biochemical, W721R variant, dose response (AID 504729); type: functional
T4 sequence (Q2TB90 whole entry): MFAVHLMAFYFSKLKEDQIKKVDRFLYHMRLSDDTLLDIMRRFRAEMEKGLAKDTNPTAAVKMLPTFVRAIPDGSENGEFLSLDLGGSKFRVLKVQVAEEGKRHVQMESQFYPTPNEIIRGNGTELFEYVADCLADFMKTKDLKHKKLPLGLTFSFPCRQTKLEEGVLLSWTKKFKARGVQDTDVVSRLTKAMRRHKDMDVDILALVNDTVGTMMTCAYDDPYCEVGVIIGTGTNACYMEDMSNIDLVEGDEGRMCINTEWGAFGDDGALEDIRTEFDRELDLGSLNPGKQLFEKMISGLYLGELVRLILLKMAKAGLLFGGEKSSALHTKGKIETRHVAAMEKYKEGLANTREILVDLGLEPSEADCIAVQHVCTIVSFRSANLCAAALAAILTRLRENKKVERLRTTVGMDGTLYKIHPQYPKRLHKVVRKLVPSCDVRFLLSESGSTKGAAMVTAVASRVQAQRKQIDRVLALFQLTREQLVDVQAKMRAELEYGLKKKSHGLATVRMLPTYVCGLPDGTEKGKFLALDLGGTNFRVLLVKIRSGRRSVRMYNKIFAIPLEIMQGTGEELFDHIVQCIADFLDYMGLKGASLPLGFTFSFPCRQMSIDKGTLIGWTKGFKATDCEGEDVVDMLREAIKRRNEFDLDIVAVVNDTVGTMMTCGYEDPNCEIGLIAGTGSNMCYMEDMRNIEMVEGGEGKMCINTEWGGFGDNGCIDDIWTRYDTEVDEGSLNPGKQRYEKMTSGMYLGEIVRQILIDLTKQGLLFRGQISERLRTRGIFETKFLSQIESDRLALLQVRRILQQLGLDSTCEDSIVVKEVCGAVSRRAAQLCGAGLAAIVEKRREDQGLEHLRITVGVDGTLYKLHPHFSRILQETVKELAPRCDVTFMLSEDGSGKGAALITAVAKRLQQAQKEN

Beta Lactamase = Beta Lactamase (Pseudomonas aeruginosa, UniProt Q932Y6); assay: BLA reporter interference, concentration series – BLA reporter cells, FRET fluorescence, artefact control for TLR9-MyD88 binding inhibitor project, dose response (AID 588341); type: cell-based;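 also: cell based assay in CHO-K1 cells stably expressing beta-lactamase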
Sequence of Beta Lactamase (Q932Y6 whole entry, the tested form may be a part): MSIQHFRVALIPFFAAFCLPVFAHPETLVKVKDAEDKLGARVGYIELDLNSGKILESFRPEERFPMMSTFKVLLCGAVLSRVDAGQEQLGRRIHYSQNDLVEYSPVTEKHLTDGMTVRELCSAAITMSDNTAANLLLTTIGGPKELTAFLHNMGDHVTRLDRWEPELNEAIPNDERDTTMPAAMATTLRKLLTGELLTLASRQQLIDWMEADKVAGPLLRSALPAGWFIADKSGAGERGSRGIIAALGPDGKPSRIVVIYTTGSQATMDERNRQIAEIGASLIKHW

CHO = CHO cell viability loss, potency – luminescence, cytotoxicity control for TLR9-MyD88 binding inhibitor project, dose response (AID 588339); type: functional, cell-based, hamster; conditions: Cricetulus griseus;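 also: CHO cells stably coexpressing TLR9 and MyD88 fusions from primary screen; compound exposure lasted 48 hours before viability readout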
[6] = biological target: T5, Delta-type opioid receptor (Homo sapiens, UniProt P41143); assay: HTS Image-Based Screen for Antagonists of the DOR Receptor. [Related pubchem assays (depositor defined):AID1777, AID1785, AID1786, AID2133]; type: functional
T5 sequence (P41143 whole entry): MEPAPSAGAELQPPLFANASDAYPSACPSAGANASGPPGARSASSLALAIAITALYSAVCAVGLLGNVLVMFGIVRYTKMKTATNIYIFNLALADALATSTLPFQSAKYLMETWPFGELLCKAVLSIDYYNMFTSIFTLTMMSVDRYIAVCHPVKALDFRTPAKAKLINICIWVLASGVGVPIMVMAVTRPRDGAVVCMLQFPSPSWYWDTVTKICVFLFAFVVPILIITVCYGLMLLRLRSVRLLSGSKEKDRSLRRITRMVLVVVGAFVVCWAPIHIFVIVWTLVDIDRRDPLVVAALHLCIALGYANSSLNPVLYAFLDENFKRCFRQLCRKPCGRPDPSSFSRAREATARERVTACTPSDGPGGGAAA

[7] = biological target: T5, Delta-type opioid receptor; assay: HTS Image-Based Screen for Agonists of the DOR Receptor. [Related pubchem assays (depositor defined):AID1777, AID1786, AID2133]; type: functional
[8] = biological target: Kappa-type opioid receptor (Homo sapiens, UniProt P41145); type: functional
Sequence of Kappa-type opioid receptor (P41145 whole entry): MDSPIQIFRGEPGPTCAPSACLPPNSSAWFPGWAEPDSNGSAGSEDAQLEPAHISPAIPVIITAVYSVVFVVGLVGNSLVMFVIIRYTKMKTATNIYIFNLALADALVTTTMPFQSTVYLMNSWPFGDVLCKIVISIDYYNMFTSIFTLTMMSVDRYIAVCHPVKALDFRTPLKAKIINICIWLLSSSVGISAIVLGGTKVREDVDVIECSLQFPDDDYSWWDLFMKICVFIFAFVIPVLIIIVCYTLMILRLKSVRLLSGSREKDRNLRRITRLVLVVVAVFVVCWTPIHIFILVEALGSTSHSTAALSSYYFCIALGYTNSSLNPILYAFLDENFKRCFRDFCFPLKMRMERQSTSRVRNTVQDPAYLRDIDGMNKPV

SUMO-activating enzyme = SUMO-activating enzyme (Homo sapiens, UniProt Q9UBT2); assay: blockers of SAE1/SAE2–UBC9 SUMO transfer – biochemical, HTRF, uHTS, primary screen (AID 2006); type: protein-complex assay
Sequence of SUMO-activating enzyme (Q9UBE0 whole entry, the tested form may be a part): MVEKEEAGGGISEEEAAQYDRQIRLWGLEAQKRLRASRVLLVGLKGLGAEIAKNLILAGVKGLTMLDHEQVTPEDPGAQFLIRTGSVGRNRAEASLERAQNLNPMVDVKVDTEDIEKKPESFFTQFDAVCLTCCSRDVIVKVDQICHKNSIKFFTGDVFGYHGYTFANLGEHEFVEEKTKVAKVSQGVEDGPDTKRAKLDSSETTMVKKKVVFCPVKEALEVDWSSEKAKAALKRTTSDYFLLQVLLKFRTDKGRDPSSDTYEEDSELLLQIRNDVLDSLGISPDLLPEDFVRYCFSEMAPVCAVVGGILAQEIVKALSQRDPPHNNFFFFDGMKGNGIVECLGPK
Sequence of SUMO-activating enzyme (Q9UBT2 whole entry, the tested form may be a part): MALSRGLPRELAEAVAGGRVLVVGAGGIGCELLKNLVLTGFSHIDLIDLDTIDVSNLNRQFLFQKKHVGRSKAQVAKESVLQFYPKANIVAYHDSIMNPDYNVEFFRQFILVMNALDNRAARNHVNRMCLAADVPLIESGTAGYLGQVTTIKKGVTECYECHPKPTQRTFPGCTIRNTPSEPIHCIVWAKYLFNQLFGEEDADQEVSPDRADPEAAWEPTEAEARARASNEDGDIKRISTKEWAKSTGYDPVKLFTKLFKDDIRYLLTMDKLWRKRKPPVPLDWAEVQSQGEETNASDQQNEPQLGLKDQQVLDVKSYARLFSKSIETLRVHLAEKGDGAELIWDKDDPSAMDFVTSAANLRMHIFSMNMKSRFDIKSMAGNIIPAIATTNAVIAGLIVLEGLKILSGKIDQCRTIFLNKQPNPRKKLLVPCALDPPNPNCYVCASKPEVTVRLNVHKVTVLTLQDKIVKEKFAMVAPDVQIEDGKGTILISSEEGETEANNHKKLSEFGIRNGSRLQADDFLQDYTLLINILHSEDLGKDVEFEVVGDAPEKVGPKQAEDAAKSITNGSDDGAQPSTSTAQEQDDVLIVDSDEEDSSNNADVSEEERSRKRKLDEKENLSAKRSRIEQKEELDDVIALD

[9] = HIV-1 AD8 envelope cell-cell fusion blockers – cherry-pick, dose response (AID 652062); type: functional, cell-based;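 also: luciferase signal from cell-cell fusion driven by HIV-1 clade B AD8 Env; potency is for inhibitors of fusion seen as a drop in luminescence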
[10] = blockers of HIV-1 ZM109 envelope-driven cell-cell fusion – HeLa effector, CEM target cells, luciferase, cherry-pick, dose response (AID 652058); type: functional, cell-based;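 also: luciferase signal from HIV-1 Env mediated cell-cell fusion of effector and target cells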

Compound: O=C1c2cc(F)ccc2-n2c1nc1ccccc1c2=O
- AC50 [1]: 3.73 µM (active)
- EC50 [2]: > 300 µM (not active)
- EC50 [3]: > 300 µM (not active)
- EC50 [4]: 10 µM (inconclusive)

Compound: CCOC(=O)C1=C(c2ccc(OC)cc2)C(=O)c2ccccc2C1=O
- IC50 [5]: 42.4 µM (active)
- IC50 (Hexokinase HKDC1): 2.32 µM (active)

Compound: CCC(=O)OCCNc1cc(Sc2nccn2C)c2nonc2c1[N+](=O)[O-]
- IC50 (Beta Lactamase): 8.31 µM (active)
- IC50 (CHO): 2.38 µM (active)
- IC50 [6]: 29.7 µM (inactive)
- EC50 [7]: > 32 µM (inactive)
- IC50 [8]: 4.05 µM (active)

Compound: CCCCn1c(NC(=O)c2ccccc2Cl)c(C#N)c2nc3ccccc3nc21
- IC50 (SUMO-activating enzyme): 2.82 µM (active)

Compound: O=C1C(=O)c2ccccc2-c2ccccc21 [9,10-PHENANTHRENEQUINONE]
- AC50 [9]: 2.66 µM (active)
- AC50 [10]: 3.1 µM (active)
